According to US10544130B2, “Metallo-beta-lactamase inhibitors” (priority 2015, dated 2020):
Where a name gives a salt, the structure may show the parent alone. Read-outs that look alike come from different tables or passages of the source.

Legend:
[1] = tested on: Serratia marcescens expressing IMP-1 (CL5741); type: cell-based; conditions: with imipenem 1 μg/ml; 95% inhibition of bacterial growth
Procedure, shortened: (§1)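 Growth read by absorbance after 22–24 h at 35 °C in CAMHB, with test compound alone or combined with 1 μg/ml imipenem. Inocula came from overnight 35 °C blood-agar colonies, set to a defined OD600 and diluted 1:100. Value is the inhibitor concentration giving synergy.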

[2] = tested on: Klebsiella pneumoniae expressing VIM-1 (IHMA599644); type: cell-based; conditions: with imipenem 1 μg/ml; 95% inhibition of bacterial growth
Procedure, shortened: as §1

[3] = tested on: Pseudomonas aeruginosa PAO1 MB9798 (efflux+, IMP-1); conditions: imipenem at 2 μg/mL
Procedure, shortened: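 Isogenic PAO1 pair (efflux+ MB9798, efflux− MB9799, both IMP-1) tested by microbroth MIC with fixed imipenem and/or ceftazidime, usually at CLSI breakpoint, plus fixed class A/C inhibitor against AmpC. MBL inhibitor titrated; concentration restoring susceptibility recorded and fold difference between strains taken as efflux extent.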

[4] = ratio MITC95 PA 9798/MITC95 PA 9799

Structure (SMILES)	Serratia marcescens (IMP-1) MITC95 [1]	Klebsiella pneumoniae (VIM-1) MITC95 [2]	Efflux ratio [3, 4]	Efflux ratio ([3]; fold difference between efflux + (MB9798) and efflux − (MB9799) strains)
Nc1nc2c(-c3ccc(S(=O)(=O)NC[C@H]4CCCN4)c(S(N)(=O)=O)c3-c3nn[nH]n3)cccc2[nH]1 [Example 261, (R)-4-(2-amino-1H-benzo[d]imidazol-4-yl)-N1-(pyrrolidin-2-ylmethyl)-3-(2H-tetrazol-5-yl) benzene-1,2-disulfonamide]	0.7813 µM	0.7813 µM	1.00	–
NCCNS(=O)(=O)c1ccc(-c2cccc3sc(CN)nc23)c(-c2nn[nH]n2)c1S(N)(=O)=O [Example 345, N^1-(2-aminoethyl)-4-(2-(aminomethyl)benzo[d]thiazol-4-yl)-3-(2H-tetrazol-5-yl)benzene-1,2-disulfonamide]	0.7813 µM	0.7813 µM	1.00	–
NC[C@H](N)CNS(=O)(=O)c1ccc(-c2cnc3cc[nH]c3c2)c(-c2nn[nH]n2)c1S(N)(=O)=O [Example 373, (S)-N1-(2,3-diaminopropyl)-4-(1H-pyrrolo[3,2-b]pyridin-6-yl)-3-(2H-tetrazol-5-yl)benzene-1,2-disulfonamide]	1.563 µM	3.125 µM	1.00	–
C[C@@H](CN)NS(=O)(=O)c1ccc(-c2ccc(N)nc2)c(-c2nn[nH]n2)c1S(N)(=O)=O [Example 394, (S)-N^1-(1-aminopropan-2-yl)-4-(6-aminopyridin-3-yl)-3-(2H-tetrazol-5-yl)benzene-1,2-disulfonamide]	1.563 µM	3.125 µM	–	–
NCCNCCNS(=O)(=O)c1ccc(-c2ccc(N)nc2)c(-c2nn[nH]n2)c1S(N)(=O)=O [Example 482, N1-(2-(−2-amineoethylamino)ethyl)-4-(6-aminopyridin-3-yl)-3-(2H-tetrazol-5-yl)benzene-1,2-disulfonamide]	0.7813 µM	1.563 µM	–	–
NCCNC(=O)c1cccc(-c2ccc(S(=O)(=O)NCCN)c(S(N)(=O)=O)c2-c2nn[nH]n2)c1 [Example 334, N-(2-aminoethyl)-4′-(N-(2-aminoethyl)sulfamoyl)-3′-sulfamoyl-2′-(2H-tetrazol-5-yl)-[1,1′-biphenyl]-3-carboxamide]	0.7813 µM	0.7813 µM	2.00	–
CC1(NS(=O)(=O)c2ccc(-c3cccc4[nH]c(N)nc34)c(-c3nn[nH]n3)c2S(N)(=O)=O)CNC1 [Example 257, 4-(2-amino-1H-benzo[d]imidazol-4-yl)-N1-(3-methylazetidin-3-yl)-3-(2H-tetrazol-5-yl)benzene-1,2-disulfonamide]	0.7813 µM	0.7813 µM	1.00	–
Nc1nc2c(-c3ccc(S(=O)(=O)N[C@@H]4CNC[C@@H]4N)c(S(N)(=O)=O)c3-c3nn[nH]n3)cccc2[nH]1 [Example 240, 4-(2-amino-1H-benzo[d]imidazol-4-yl)-N^1-((3R,4S)-4-aminopyrrolidin-3-yl)-3-(2H-tetrazol-5-yl)benzene-1,2-disulfonamide]	0.7813 µM	1.563 µM	1.00	–
N[C@@H]1CNC[C@@H]1NS(=O)(=O)c1ccc(-c2cnc3cc[nH]c3c2)c(-c2nn[nH]n2)c1S(N)(=O)=O [Example 326, N1-((3S,4R)-4-aminopyrrolidin-3-yl)-4-(1H-pyrrolo[3,2-b]pyridin-6-yl)-3-(2H-tetrazol-5-yl)benzene-1,2-disulfonamide]	1.563 µM	1.563 µM	1.00	–
NCc1csc(Nc2cccc(-c3ccc(S(=O)(=O)N[C@@H]4CCNC4)c(S(N)(=O)=O)c3-c3nn[nH]n3)c2)n1 [Example 290, (R)-3′-((4-(aminomethyl)thiazol-2-yl)amino)-N4-(pyrrolidin-3-yl)-2-(2H-tetrazol-5-yl)-[1,1′-biphenyl]-3,4-disulfonamide]	0.7813 µM	0.7813 µM	2.00	–
NC[C@H](O)CNS(=O)(=O)c1ccc(-c2ccc3nccn3c2)c(-c2nn[nH]n2)c1S(N)(=O)=O [Example 418, (S)-N^1-(3-amino-2-hydroxypropyl)-4-(imidazo[1,2-a]pyridin-6-yl)-3-(2H-tetrazol-5-yl)benzene-1,2-disulfonamide]	0.7813 µM	1.563 µM	–	–
Nc1ccc(-c2ccc(S(=O)(=O)N[C@@H]3CCCNC3)c(S(N)(=O)=O)c2-c2nn[nH]n2)cn1 [Example 490, (R)-4-(6-aminopyridin-3-yl)-N1-(piperidin-3-yl)-3-(2H-tetrazol-5-yl)benzene-1,2-disulfonamide]	1.563 µM	3.125 µM	–	–
Cc1cc(-c2ccc(S(=O)(=O)NC[C@H](O)CN)c(S(N)(=O)=O)c2-c2nn[nH]n2)cnc1N [Example 477, (R)—N1-(3-amino-2-hydroxypropyl)-4-(6-amino-5-methylpyridin-3-yl)-3-(2H-tetrazol-5-yl)benzene-1,2-disulfonamide]	0.7813 µM	1.563 µM	–	–
NC[C@@]1(NS(=O)(=O)c2ccc(-c3ccc(N)nc3)c(-c3nn[nH]n3)c2S(N)(=O)=O)CCNC1 [Example 487, (S)-N1-(3-(aminomethyl)pyrrolidin-3-yl)-4-(6-aminopyridin-3-yl)-3-(2H-tetrazol-5-yl)benzene-1,2-disulfonamide dihydrochloride]	0.7813 µM	1.563 µM	–	1.00
NCCNc1ncccc1-c1ccc(S(=O)(=O)N[C@@H]2CCNC2)c(S(N)(=O)=O)c1-c1nn[nH]n1 [Example 459, (R)-4-(2-((2-Aminoethyl)amino)pyridin-3-yl)-N1-(pyrrolidin-3-yl)-3-(2H-tetrazol-5-yl)benzene-1,2-disulfonamide]	1.563 µM	1.563 µM	–	–
C[C@H](N)c1nc2c(-c3ccc(S(=O)(=O)N[C@@H]4CCNC4)c(S(N)(=O)=O)c3-c3nn[nH]n3)cccc2[nH]1 [Example 272, 4-(2-((S)-1-aminoethyl)-1H-benzo[d]imidazol-4-yl)-N1-((R)-pyrrolidin-3-yl)-3-(2H-tetrazol-5-yl)benzene-1,2-disulfonamide]	1.563 µM	1.563 µM	2.00	–
NCCNS(=O)(=O)c1ccc(-c2cccc(-c3c[nH]c(N)n3)c2)c(-c2nn[nH]n2)c1S(N)(=O)=O [Example 353, 3′-(2-amino-1H-imidazol-4-yl)-N4-(2-aminoethyl)-2-(2H-tetrazol-5-yl)-[1,1′-biphenyl]-3,4-disulfonamide]	0.7813 µM	1.563 µM	2.00	–
C[C@H](CN)NS(=O)(=O)c1ccc(-c2cccc3c2nc(N)n3C)c(-c2nn[nH]n2)c1S(N)(=O)=O [Example 395, (R)-4-(2-amino-1-methyl-1H-benzo[d]imidazol-4-yl)-N^1-(1-aminopropan-2-yl)-3-(2H-tetrazol-5-yl)benzene-1,2-disulfonamide]	1.563 µM	1.563 µM	–	–
C[C@H](CN)NS(=O)(=O)c1ccc(-c2ccnc(N)c2)c(-c2nn[nH]n2)c1S(N)(=O)=O [Example 317, (R)—N1-(1-aminopropan-2-yl)-4-(2-aminopyridin-4-yl)-3-(2H-tetrazol-5-yl) benzene-1,2-disulfonamide]	1.563 µM	3.125 µM	0.50	–
C[C@@H](CN)NS(=O)(=O)c1ccc(-c2cccc3sc(N)nc23)c(-c2nn[nH]n2)c1S(N)(=O)=O [Example 389, 4-(2-amino-1,3-benzothiazol-4-yl)-N^1-[(1S)-2-amino-1-methylethyl]-3-(2H-tetrazol-S-yl)benzene-1,2-disulfonamide]	3.125 µM	3.125 µM	–	–
NC[C@@H](N)CNS(=O)(=O)c1ccc(-c2cccc3[nH]c(N)nc23)c(-c2nn[nH]n2)c1S(N)(=O)=O [Example 375, (R)-4-(2-amino-1H-benzo[d]imidazol-4-yl)-N1-(2,3-diaminopropyl)-3-(2H-tetrazol-5-yl)benzene-1,2-disulfonamide]	1.563 µM	1.563 µM	1.00	–
C[C@@H](N)CNS(=O)(=O)c1ccc(-c2ccnc(N)c2)c(-c2nn[nH]n2)c1S(N)(=O)=O [Example 422, (R)-N^1-(2-aminopropyl)-4-(2-aminopyridin-4-yl)-3-(2H-tetrazol-5-yl)benzene-1,2-disulfonamide]	0.7813 µM	1.563 µM	–	–
C[C@H](N)CNS(=O)(=O)c1ccc(-c2ccnc(N)c2)c(-c2nn[nH]n2)c1S(N)(=O)=O [Example 421, (S)-N^1-(2-aminopropyl)-4-(2-aminopyridin-4-yl)-3-(2H-tetrazol-5-yl)benzene-1,2-disulfonamide]	0.7813 µM	1.563 µM	–	–
